This test concerns Human RSV-A (“Long” strain). Briefly: RSV in vitro cytoprotection assay in HEp-2 cells (ATPlite read-out). The test is classed as cell-based. As to conditions: human respiratory syncytial virus. From the text:
RSV is a single stranded negative sense RNA virus that causes respiratory tract infections which can be dangerous to infants, the elderly, and immunosuppressed individuals. Currently there is no vaccine, and therapeutic options are both costly and of limited effectiveness. These approved treatments are Ribavirin, and Palivizumab/Synagis (a monoclonal antibody). RSV has two genotypes, A and B, which differ primarily in the structure of the virus' surface “G” attachment protein. Our current primary screen focusses on RSV-A and uses an in vitro cytoprotection assay where compounds are added in 2-fold dilutions to cells which are then subjected to fully replicative viral particles. Cell viability is measured several days later along with separate measurements of compound cytotoxicity. This report focuses on the results of our most recent screening of compounds.
HEp-2 cells, (originally derived from tumors grown in irradiated-cortisonised weanling rats that had been injected with epidermoid carcinoma tissue from a person's larynx, but later found to be indistinguishable from HeLa cells by PCR DNA analysis), were used for the culturing of genotype A, “Long” strain RSV. Flasks were inoculated with RSV and viral stocks were collected once cytopathic effect (CPE) was greater than 90%. Viral stocks in 25% sucrose media were snap frozen using liquid nitrogen to increase viral stability. Viral stock titers were quantified by tissue culture infectious dose 50% (TCID50) using 8,000 cells per well and 3-fold viral dilutions across a 96-well plate, cultured for 4 days.
Following extensive parameter testing, the final assay is run as follows: HEp-2 cells are seeded into the inner 60 wells of a 96-well plate at 8,000 cells per well in a volume of 50 μL using Growth Media (DMEM without phenol red, 1% L-Glut, 1% Penn/Strep, 1% nonessential amino acids, 10% FBS). 2-Fold serial dilutions of control and test compounds are added to the wells in duplicate in a total volume of 25 μL. Viral stock is then added to the wells in a volume of 25 μL, bringing the total volume of each well to 100 μL. Each 96-well plate has a control column of 6 wells with cells and virus but no compound (negative control, max CPE), a column with cells but no compound or virus (positive control, minimum CPE), and a column with no cells or virus or compound (background plate/reagent control). The control wells with cells but no virus are given an additional 25 μL of growth media containing an equal quantity of sucrose as those wells receiving the viral stock in order to keep consistent in media and volume conditions. The outer wells of the plate are filled with 125 μL of growth media to act as a thermal and evaporative moat around the test wells. Following a 4-day incubation period, the plates are read using ATPlite (50 uL added per well), which quantifies the amount of ATP (a measure of cell health) present in each well. Assay plates are read using the Envision luminometer. In parallel, cytotoxicity is examined on an additional 96-well plate treated in an identical manner, but substituting the 25 μL of viral stock for 25 μL of growth media. […] EC50 ranges are as follows: A<0.01 μM; B 0.01-0.05 μM; C>0.05 μM.

The mark [1] stands for this setting: 96 h, HEp-2 cells, genotype A “Long” strain RSV, 4-day incubation, ATPlite, read-out: Human RSV-A (“Long” strain) EC50.

SMILES strings stand for the structures. pEC50: −log10 of the molar value. Where two headings read alike, the source gives them in different places.

Regarding `Cc1cnc(N2CC3(CCOCC3)C2)c(C(=O)Nc2ccc(C(=O)N3CCC(c4ccc(C(=O)NC5CC5)s4)=Cc4ccccc43)cc2)c1` [Example 1], the pEC50 under setting [1] is above 8.00. The same measure, in the same setting: under `Cc1cnc(N2CC3(CCOCC3)C2)c(C(=O)Nc2ccc(C(=O)N3CCC(c4ccc(C(=O)Nc5c(F)cccc5F)s4)=Cc4ccccc43)cc2)c1` [Example 2] stands above 8.00; under `Cc1cnc(N2CC3(CCOCC3)C2)c(C(=O)Nc2ccc(C(=O)N3CCC(c4ccc(C(=O)NC5CCC5)s4)=Cc4ccccc43)cc2)c1` [Example 3], above 8.00; under `Cc1cnc(N2CC3(CCOCC3)C2)c(C(=O)Nc2ccc(C(=O)N3CCC(c4ccc(C(=O)NC5CC(F)(F)C5)s4)=Cc4ccccc43)cc2)c1` [Example 4], above 8.00. On the same count and under the same terms, under `Cc1cnc(N2CC3(CCOCC3)C2)c(C(=O)Nc2ccc(C(=O)N3CCC(c4ccc(C(=O)NC56CC(C5)C6)s4)=Cc4ccccc43)cc2)c1` [Example 5] stands 7.30 to 8.00; under `Cc1cnc(N2CC3(CCOCC3)C2)c(C(=O)Nc2ccc(C(=O)N3CCC(c4ccc(C(=O)Nc5c(C)cccc5F)s4)=Cc4ccccc43)cc2)c1` [Example 6], 7.30 to 8.00; under `Cc1ccc(C(=O)Nc2ccc(C(=O)N3CCC(c4ccc(C(=O)Nc5c(F)cccc5F)s4)=Cc4ccccc43)cc2)c(N2CC3(CCOCC3)C2)n1` [Example 7], 7.30 to 8.00. The same measure, in the same setting: to `Cc1ccc(C(=O)Nc2ccc(C(=O)N3CCC(c4ccc(C(=O)Nc5c(C)cccc5F)s4)=Cc4ccccc43)cc2)c(N2CC3(CCOCC3)C2)n1` [Example 8] belongs 7.30 to 8.00; to `Cc1ccc(C(=O)Nc2ccc(C(=O)N3CCC(c4ccc(C(=O)NC5CC(F)(F)C5)s4)=Cc4ccccc43)cc2)c(N2CC3(CCOCC3)C2)n1` [Example 9], 7.30 to 8.00; to `Cc1ccc(C(=O)Nc2ccc(C(=O)N3CCC(c4ccc(C(=O)NC5CCC5)s4)=Cc4ccccc43)cc2)c(N2CC3(CCOCC3)C2)n1` [Example 10], above 8.00. With `Cc1ccc(C(=O)Nc2ccc(C(=O)N3CCC(c4ccc(C(=O)NC56CC(C5)C6)s4)=Cc4ccccc43)cc2)c(N2CC3(CCOCC3)C2)n1` [Example 11], the pEC50 under setting [1] is 7.30 to 8.00. As to `Cc1cnc(N2CC3(CCOCC3)C2)c(C(=O)Nc2ccc(C(=O)N3CCC(c4cc(C(=O)NC5CC5)cs4)=Cc4ccccc43)cc2)c1` [Example 12], the pEC50 under setting [1] is 7.30 to 8.00. Still for that read-out and setting: under `CC1=C(c2ccc(C(=O)NC3CC3)s2)CCN(C(=O)c2ccc(NC(=O)c3cc(C)cnc3N3CC4(CCOCC4)C3)cc2)c2ccccc21` [Example 13] stands below 7.30; under `CC1=C(c2ccc(C(=O)Nc3c(C)cccc3F)s2)CCN(C(=O)c2ccc(NC(=O)c3cc(C)cnc3N3CC4(CCOCC4)C3)cc2)c2ccccc21` [Example 14], below 7.30; under `Cc1cnc(N2CC3(CCOCC3)C2)c(C(=O)Nc2ccc(C(=O)N3CCC(c4ccc(C(=O)NC5CC5)cc4)=Cc4ccccc43)cc2)c1` [Example 15], above 8.00. Still for that read-out and setting: under `Cc1cnc(N2CC3(CCOCC3)C2)c(C(=O)Nc2ccc(C(=O)N3CCC(c4ccc(C(=O)Nc5c(C)cccc5F)cc4)=Cc4ccccc43)cc2)c1` [Example 16] stands above 8.00. As to `O=C(Nc1ccccc1F)N[C@H]1N=C(c2ccccc2)c2ccccc2NC1=O` [RSV-604, reference compound], the pEC50 (HEp-2) was around 5.62.

Source of the values: US11179400B2, “Heterocyclic compounds as RSV inhibitors” (priority 2019, dated 2021).
